From patent publication US8263649B2, “Benzofuran type derivatives, a composition comprising the same for treating or preventing cognitive dysfunction and the use thereof” (Medifron DBT Co., Ltd., priority 2006, dated 2012)

How the values were obtained:
beta amyloid 1-42 = target: T1, beta amyloid 1-42 (Homo sapiens, UniProt P05067); experiment: Inhibition test of beta amyloid aggregation (Thioflavin T fluorescence); assay type: biochemical; settings: FIG. 1
T1 construct: Synthetic beta amyloid 1-42 (BACHEM); purchased BACHEM; host or cells: synthetic peptide
T1 sequence (P05067 672-713): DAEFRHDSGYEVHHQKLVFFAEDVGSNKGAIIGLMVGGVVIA
Method: Synthetic beta amyloid 1-42 (BACHEM) was dissolved in DMSO in order to 250 μm solution and diluted with PBS into 1/10 on fluorescent black plate to induce aggregation. By comparing with inhibition activity of the tanshinone compounds prepared in Example 1 on beta amyloid aggregation, the test sample showing more than 50% inhibition activity at 10 μg/ml was chosen to use and added to react for 1 hour at room temperature. ThT (Thioflavin T) was diluted with 50 mM glycine buffer solution and the diluted solution was added to each well by 150 μl/well. The absorbance was determined by microplate reader (SAFIRE, TECAN) at 450 nm excitation wavelength/480 nm emission wavelength and the inhibition activity of the test sample on beta amyloid aggregation was transformed into IC50.

[1] = tested on: HT22 mouse neuronal cell line treated with aggregated beta amyloid 25-35; experiment: Inhibition test of beta amyloid toxicity (MTT); assay type: cell-based; settings: HT22 cells, 25 μm aggregated beta amyloid 25-35, 18 hours
Method: To determine the inhibitory activity of the compounds prepared in Examples on beta-amyloid toxicity, following test was performed according to the procedure disclosed in the literature (Gillardon, F. et al., Brain Research, 706(1), pp. 169-172, 1996).
HT22 mouse neuronal cell line was incubated in DMEM (Dulbecco's Modified Eagle's Medium, Gibco-BRL) medium supplemented with 10% FBS (Fetal Bovine Serum, Hyclone) and 1% penicillin/streptomycin (Sigma Co.). Prior to test, HT22 cell was incubated on 96 well plates with a density of 5×10^3 cell/well and further incubated in serum free DMEM medium for 1 hour before the treatment of test sample. Various concentration of compounds prepared in Examples used as a test sample was added thereto and incubated for 1 hour. Aggregated beta amyloid 25-35 (US peptide) was treated thereto to the concentration of 25 μm and incubated for 18 hours to induce cell necrosis. 5 mg/ml of MTT (3-(4,5-dimethyl-2-thiazolyl)-2,5-diphenyl-2H-tetrazolium bromide) solution was added each well with 15 μl/well and the well was incubated for 4 hours. Dissolving buffer solution (10% SDS, 50% dimethyl formamide, pH 4.7) was added to each well with 100 μl/well and reacted for overnight. 18 hours after the reaction, the absorbance of solution was determined by microplate reader (SAFIRE, TECAN) at 570 nm/630 nm wavelength (Gillardon, F. et al., Brain Research, 706(1) pp 169-172, 1996).

SMILES	melting point	inhibitory effect on the aggregation of beta amyloid (beta amyloid 1-42)	inhibition effect on beta-amyloid toxicity [1]
COCCc1ccc2oc(-c3ccc(OCOC)c(OC)c3)c(SC)c2c1 [Compound 14a, 5-(2-methoxy-ethyl)-2-(3-methoxy-4-methoxymethoxy-phenyl)-3-methylsulfanyl-benzofuran]	70 °C		
COCCc1ccc2oc(-c3ccc(OC)c(OC)c3)c(SC)c2c1 [Compound 17a, 2-(3,4-dimethoxy-phenyl)-5-(2-methoxy-ethyl)-3-methylsulfanyl-benzofuran]	61 °C		
COc1ccc(-c2oc3ccc(CC(=O)N4CCN(c5ccccc5)CC4)cc3c2SC)cc1OC [Compound 37a, 2-[2-(3,4-dimethoxy-phenyl)-3-methylsulfanyl-benzofuran-5-yl)-1-(4-phenyl-piperazin-1-yl)-ethanone]	160 °C		
COC(=O)Cc1ccc2oc(-c3ccc(OC)c(OC)c3)c(SC)c2c1 [Compound 31a, [2-(3,4-dimethoxy-phenyl)-3-(methylsulfanyl)-benzofuran-5-yl)acetic acid methyl ester]	91 °C		
COc1ccc(-c2oc3ccc(CCO)cc3c2SC)cc1OC [Compound 39a, 2-[2-(3,4-dimethoxy-phenyl)-3-methylsulfanyl-benzofuran-5-yl]-ethanol]	96 °C		
COCCCc1ccc2oc(-c3ccc(O)c(OC)c3)c(SC)c2c1 [Compound 15b, 2-methoxy-4-[5-(3-methoxy-propyl)-3-methylsulfanyl-benzofuran-2yl]-phenol]		potent inhibition effect	potent inhibition effect
COCCc1ccc2oc(-c3ccc(O)c(OC)c3)c(SC)c2c1 [Compound 15a, 2-methoxy-4-[5-(2-methoxy-ethyl)-3-methylsulfanyl-benzofuran-2-yl]-phenol]	67 °C	potent inhibition effect	potent inhibition effect
COCCc1ccc2oc(-c3ccc(O)c(OC)c3)cc2c1 [Compound 16a, 2-methoxy-4-[5-(2-methoxy-ethyl)-benzofuran-2yl]-phenol]	180 °C		
COc1ccc(-c2oc3ccc(CC(=O)N4CCN(Cc5ccccc5)CC4)cc3c2SC)cc1OC	70 °C		
COc1ccc(-c2oc3ccc(CC(=O)O)cc3c2SC)cc1OC [Compound 33a, [2-(3,4-dimethoxy-phenyl)-3-methylsulfanyl-benzofuran-5-yl]-acetic acid]	165 °C		

Further lines, with some results ahead:

melting point	inhibitory effect on the aggregation of beta amyloid (beta amyloid 1-42)	SMILES	inhibition effect on beta-amyloid toxicity [1]
119 °C		COC(=O)Cc1ccc2oc(-c3ccc(OC)c(OC)c3)cc2c1 [Compound 32a, [2-(3,4-dimethoxyphenyl)-benzofuran-5-yl]acetic acid methyl ester]	
122 °C		COc1ccc(-c2cc3cc(CCO)ccc3o2)cc1OC [Compound 40a, 2-[2-(3,4-dimethoxy-phenyl)-benzofuran-5-yl]-ethanol]	
81 °C		COCCc1ccc2oc(-c3ccc(OC)c(OC)c3)cc2c1 [Compound 18a, 2-(3,4-dimethoxy-phenyl)-5-(2-methoxy-ethyl)-benzofuran]	
202 °C		COc1ccc(-c2cc3cc(CC(=O)O)ccc3o2)cc1OC [Compound 34a, [2-(3,4-dimethoxy-phenyl)-benzofuran-5-yl]-acetic acid]	
